{"source": "PubChem BioAssay AID2060613", "about": "(Molecular Pharmacology Branch, DTP, NCI, 2025);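 further: spheroids exposed to the drug combinations for seven days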;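 on viability, T/C: percent viability relative to DMSO vehicle control wells taken as 100%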", "system": "233499-124-R-J3-PDC complex spheroid viability", "assay": "Anticancer human tumor 233499-124-R-J3-PDC patient-derived colon adenocarcinoma cell line growth inhibition [CLK]", "conditions": "for viability, T/C: stronger effect = lower value", "outline": "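Multi-cell-type spheroids combined patient-derived tumor cells with HUVEC endothelial cells and human mesenchymal stem cells. Paired agents were dosed in half-log steps down from about clinical Cmax, or from 10 microM where Cmax was unknown.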", "key": {"[1]": {"conditions": "curve of first compound, second compound 0.0316 µM"}, "[2]": {"conditions": "curve of first compound, second compound 0.1 µM"}, "[3]": {"conditions": "curve of first compound, second compound 0.316 µM"}, "[4]": {"conditions": "curve of first compound, second compound 1 µM"}, "[5]": {"conditions": "curve of first compound, second compound 3.16 µM"}, "[6]": {"conditions": "curve of first compound, second compound 10 µM"}, "[7]": {"conditions": "second compound 0.0316 µM, first compound 0.0316 µM"}, "[8]": {"conditions": "second compound 0.0316 µM, first compound 0.1 µM"}, "[9]": {"conditions": "second compound 0.0316 µM, first compound 0.316 µM"}, "[10]": {"conditions": "second compound 0.0316 µM, first compound 1 µM"}, "[11]": {"conditions": "second compound 0.0316 µM, first compound 3.16 µM"}, "[12]": {"conditions": "second compound 0.0316 µM, first compound 10 µM"}, "[13]": {"conditions": "second compound 0.1 µM, first compound 0.0316 µM"}, "[14]": {"conditions": "second compound 0.1 µM, first compound 0.1 µM"}, "[15]": {"conditions": "second compound 0.1 µM, first compound 0.316 µM"}, "[16]": {"conditions": "second compound 0.1 µM, first compound 1 µM"}, "[17]": {"conditions": "second compound 0.1 µM, first compound 3.16 µM"}, "[18]": {"conditions": "second compound 0.1 µM, first compound 10 µM"}, "[19]": {"conditions": "second compound 0.316 µM, first compound 0.0316 µM"}, "[20]": {"conditions": "second compound 0.316 µM, first compound 0.1 µM"}, "[21]": {"conditions": "second compound 0.316 µM, first compound 0.316 µM"}, "[22]": {"conditions": "second compound 0.316 µM, first compound 1 µM"}, "[23]": {"conditions": "second compound 0.316 µM, first compound 3.16 µM"}, "[24]": {"conditions": "second compound 0.316 µM, first compound 10 µM"}, "[25]": {"conditions": "second compound 1 µM, first compound 0.0316 µM"}, "[26]": {"conditions": "second compound 1 µM, first compound 0.1 µM"}, "[27]": {"conditions": "second compound 1 µM, first compound 0.316 µM"}, "[28]": {"conditions": "second compound 1 µM, first compound 1 µM"}, "[29]": {"conditions": "second compound 1 µM, first compound 3.16 µM"}, "[30]": {"conditions": "second compound 1 µM, first compound 10 µM"}, "[31]": {"conditions": "second compound 3.16 µM, first compound 0.0316 µM"}, "[32]": {"conditions": "second compound 3.16 µM, first compound 0.1 µM"}, "[33]": {"conditions": "second compound 3.16 µM, first compound 0.316 µM"}, "[34]": {"conditions": "second compound 3.16 µM, first compound 1 µM"}, "[35]": {"conditions": "second compound 3.16 µM, first compound 3.16 µM"}, "[36]": {"conditions": "second compound 3.16 µM, first compound 10 µM"}, "[37]": {"conditions": "second compound 10 µM, first compound 0.0316 µM"}, "[38]": {"conditions": "second compound 10 µM, first compound 0.1 µM"}, "[39]": {"conditions": "second compound 10 µM, first compound 0.316 µM"}, "[40]": {"conditions": "second compound 10 µM, first compound 1 µM"}, "[41]": {"conditions": "second compound 10 µM, first compound 3.16 µM"}, "[42]": {"conditions": "second compound 10 µM, first compound 10 µM"}}, "data": [{"smiles": "COc1ccc([C@@H](O)c2cc(-c3ncnc4cc(N5CCOCC5)ccc34)c(F)cc2Cl)nn1", "note": "+ CNC(=O)c1ccc(Nc2nc(OC3CCCC3)c3c(-c4ccc5nc(C)oc5c4)c[nH]c3n2)c(OC)c1", "values": [{"measurement": "IC50", "setting": "[1]", "result": "> 10000", "unit": "nM"}, {"measurement": "IC50", "setting": "[2]", "result": "> 10000", "unit": "nM"}, {"measurement": "IC50", "setting": "[3]", "result": "> 10000", "unit": "nM"}, {"measurement": "IC50", "setting": "[4]", "result": 1510, "unit": "nM"}, {"measurement": "IC50", "setting": "[5]", "result": 2680, "unit": "nM"}, {"measurement": "IC50", "setting": "[6]", "result": 118, "unit": "nM"}, {"measurement": "viability, T/C", "setting": "[7]", "result": 94.7, "unit": "%"}, {"measurement": "viability, T/C", "setting": "[8]", "result": 89.6, "unit": "%"}, {"measurement": "viability, T/C", "setting": "[9]", "result": 86.6, "unit": "%"}, {"measurement": "viability, T/C", "setting": "[10]", "result": 97, "unit": "%"}, {"measurement": "viability, T/C", "setting": "[11]", "result": 81.1, "unit": "%"}, {"measurement": "viability, T/C", "setting": "[12]", "result": 52.8, "unit": "%"}, {"measurement": "viability, T/C", "setting": "[13]", "result": 54.9, "unit": "%"}, {"measurement": "viability, T/C", "setting": "[14]", "result": 65.2, "unit": "%"}, {"measurement": "viability, T/C", "setting": "[15]", "result": 67.8, "unit": "%"}, {"measurement": "viability, T/C", "setting": "[16]", "result": 55.8, "unit": "%"}, {"measurement": "viability, T/C", "setting": "[17]", "result": 65.5, "unit": "%"}, {"measurement": "viability, T/C", "setting": "[18]", "result": 63.8, "unit": "%"}, {"measurement": "viability, T/C", "setting": "[19]", "result": 68.4, "unit": "%"}, {"measurement": "viability, T/C", "setting": "[20]", "result": 52.1, "unit": "%"}, {"measurement": "viability, T/C", "setting": "[21]", "result": 57, "unit": "%"}, {"measurement": "viability, T/C", "setting": "[22]", "result": 50.2, "unit": "%"}, {"measurement": "viability, T/C", "setting": "[23]", "result": 69.4, "unit": "%"}, {"measurement": "viability, T/C", "setting": "[24]", "result": 41.3, "unit": "%"}, {"measurement": "viability, T/C", "setting": "[25]", "result": 84.6, "unit": "%"}, {"measurement": "viability, T/C", "setting": "[26]", "result": 64, "unit": "%"}, {"measurement": "viability, T/C", "setting": "[27]", "result": 64.6, "unit": "%"}, {"measurement": "viability, T/C", "setting": "[28]", "result": 51.1, "unit": "%"}, {"measurement": "viability, T/C", "setting": "[29]", "result": 48.4, "unit": "%"}, {"measurement": "viability, T/C", "setting": "[30]", "result": 37.6, "unit": "%"}, {"measurement": "viability, T/C", "setting": "[31]", "result": 72.8, "unit": "%"}, {"measurement": "viability, T/C", "setting": "[32]", "result": 68.9, "unit": "%"}, {"measurement": "viability, T/C", "setting": "[33]", "result": 37.1, "unit": "%"}, {"measurement": "viability, T/C", "setting": "[34]", "result": 55.2, "unit": "%"}, {"measurement": "viability, T/C", "setting": "[35]", "result": 65.3, "unit": "%"}, {"measurement": "viability, T/C", "setting": "[36]", "result": 39, "unit": "%"}, {"measurement": "viability, T/C", "setting": "[37]", "result": 55.3, "unit": "%"}, {"measurement": "viability, T/C", "setting": "[38]", "result": 49.2, "unit": "%"}, {"measurement": "viability, T/C", "setting": "[39]", "result": 43.7, "unit": "%"}, {"measurement": "viability, T/C", "setting": "[40]", "result": 46.4, "unit": "%"}, {"measurement": "viability, T/C", "setting": "[41]", "result": 47.7, "unit": "%"}, {"measurement": "viability, T/C", "setting": "[42]", "result": 38.9, "unit": "%"}]}, {"smiles": "Nc1ccn(C2OC(CO)C(O)C2(F)F)c(=O)n1", "note": "(stereo unspecified) + CNC(=O)c1ccc(Nc2nc(OC3CCCC3)c3c(-c4ccc5nc(C)oc5c4)c[nH]c3n2)c(OC)c1", "values": [{"measurement": "IC50", "setting": "[1]", "result": 71.3, "unit": "nM"}, {"measurement": "IC50", "setting": "[2]", "result": 125, "unit": "nM"}, {"measurement": "IC50", "setting": "[3]", "result": 121, "unit": "nM"}, {"measurement": "IC50", "setting": "[4]", "result": 42.4, "unit": "nM"}, {"measurement": "IC50", "setting": "[5]", "result": 39.9, "unit": "nM"}, {"measurement": "IC50", "setting": "[6]", "result": 44.1, "unit": "nM"}, {"measurement": "viability, T/C", "setting": "[7]", "result": 80.5, "unit": "%"}, {"measurement": "viability, T/C", "setting": "[8]", "result": 37.3, "unit": "%"}, {"measurement": "viability, T/C", "setting": "[9]", "result": 11.7, "unit": "%"}, {"measurement": "viability, T/C", "setting": "[10]", "result": 13.9, "unit": "%"}, {"measurement": "viability, T/C", "setting": "[11]", "result": 22.5, "unit": "%"}, {"measurement": "viability, T/C", "setting": "[12]", "result": 13.7, "unit": "%"}, {"measurement": "viability, T/C", "setting": "[13]", "result": 56.8, "unit": "%"}, {"measurement": "viability, T/C", "setting": "[14]", "result": 57.8, "unit": "%"}, {"measurement": "viability, T/C", "setting": "[15]", "result": 18.3, "unit": "%"}, {"measurement": "viability, T/C", "setting": "[16]", "result": 22, "unit": "%"}, {"measurement": "viability, T/C", "setting": "[17]", "result": 18.2, "unit": "%"}, {"measurement": "viability, T/C", "setting": "[18]", "result": 18.3, "unit": "%"}, {"measurement": "viability, T/C", "setting": "[19]", "result": 65.2, "unit": "%"}, {"measurement": "viability, T/C", "setting": "[20]", "result": 56.8, "unit": "%"}, {"measurement": "viability, T/C", "setting": "[21]", "result": 15.7, "unit": "%"}, {"measurement": "viability, T/C", "setting": "[22]", "result": 8.6, "unit": "%"}, {"measurement": "viability, T/C", "setting": "[23]", "result": 14.8, "unit": "%"}, {"measurement": "viability, T/C", "setting": "[24]", "result": 14.3, "unit": "%"}, {"measurement": "viability, T/C", "setting": "[25]", "result": 63, "unit": "%"}, {"measurement": "viability, T/C", "setting": "[26]", "result": 12, "unit": "%"}, {"measurement": "viability, T/C", "setting": "[27]", "result": 13.7, "unit": "%"}, {"measurement": "viability, T/C", "setting": "[28]", "result": 9.36, "unit": "%"}, {"measurement": "viability, T/C", "setting": "[29]", "result": 10.2, "unit": "%"}, {"measurement": "viability, T/C", "setting": "[30]", "result": 8.84, "unit": "%"}, {"measurement": "viability, T/C", "setting": "[31]", "result": 53.5, "unit": "%"}, {"measurement": "viability, T/C", "setting": "[32]", "result": 36, "unit": "%"}, {"measurement": "viability, T/C", "setting": "[33]", "result": 11.4, "unit": "%"}, {"measurement": "viability, T/C", "setting": "[34]", "result": 5.38, "unit": "%"}, {"measurement": "viability, T/C", "setting": "[35]", "result": 6.79, "unit": "%"}, {"measurement": "viability, T/C", "setting": "[36]", "result": 5.11, "unit": "%"}, {"measurement": "viability, T/C", "setting": "[37]", "result": 53.4, "unit": "%"}, {"measurement": "viability, T/C", "setting": "[38]", "result": 41.7, "unit": "%"}, {"measurement": "viability, T/C", "setting": "[39]", "result": 11.5, "unit": "%"}, {"measurement": "viability, T/C", "setting": "[40]", "result": 6.13, "unit": "%"}, {"measurement": "viability, T/C", "setting": "[41]", "result": 5.83, "unit": "%"}, {"measurement": "viability, T/C", "setting": "[42]", "result": 4.84, "unit": "%"}]}, {"smiles": "COc1c(OCCCN2CCOCC2)ccc2c3n(c(=NC(=O)c4cnc(N)nc4)nc12)CCN3", "values": [{"measurement": "viability, T/C", "setting": "compound 0.00316 µM", "result": 83, "unit": "%"}, {"measurement": "viability, T/C", "setting": "compound 0.01 µM", "result": 86, "unit": "%"}, {"measurement": "viability, T/C", "setting": "compound 0.0316 µM", "result": 88.8, "unit": "%"}, {"measurement": "viability, T/C", "setting": "compound 0.1 µM", "result": 49.3, "unit": "%"}, {"measurement": "viability, T/C", "setting": "compound 0.316 µM", "result": 34.4, "unit": "%"}, {"measurement": "viability, T/C", "setting": "compound 1 µM", "result": 3.62, "unit": "%"}, {"measurement": "IC50", "setting": "curve of compound", "result": 141, "unit": "nM"}]}]}
